Experimental data as given in EP1534672B1, “RETINOL DERIVATIVES, THEIR USE IN THE TREATMENT OF CANCER AND FOR POTENTIATING THE EFFICACY OF OTHER CYTOTOXIC AGENTS” (priority 2002, dated 2004).
Like-named read-outs stand apart in the source and are kept apart here.

Tests used:
[1] = test system: Human Breast Adenocarcinoma Cell Line MDA-MB-231; experiment: Drug cytotoxicity testing (viable cell count, trypan blue exclusion, cell growth inhibition); assay type: cell-based; conditions: for inhibition at 0.1 µM / inhibition at 0.01 µM / inhibition at 0.001 µM: Homo sapiens; for cell growth inhibition in (A) compared to compound in B / cell growth inhibition reached on increase of the concentration, in (B): sodium salt, range 10^-9 to 10^-7 M; for cell growth inhibition reached on increase of the concentration, in (B): dilution in normal saline (B)
Description: MDA-MB-231 cells were propagated in MEM culture medium with 2 mM L-glutamine, 10% heat-inactivated fetal bovine serum (FBS) and antibiotics. DU 145 cells were cultured in MEM culture medium containing 2 mM L-glutamine, 1 mM sodium pyruvate, 10% FBS and antibiotics. SKOV-3 cells were cultured in McCoy's 5A culture medium, supplemented with 1,5 mM L-glutamine, 10% FBS and antibiotics. A549 cells were cultured in Ham's F-12 culture medium with 1 mM L-glutamine, 10% FBS and antibiotics. All media and supplements were purchased from Sigma-Aldrich (St.Louis, MO, USA). Cell propagation of all lines was carried out in Falcon™ 25 cm^2 cultivation flasks (Becton Dickinson Labware).
Drug cytotoxicity testing was carried out with using Falcon™ 96-well cultivation plates for adherent cells (Becton Dickinson Labware). These plates were seeded by cells either at 12 × 10^3 MDA-MB-231 cells/well, or at 12 × 10^3 DU 145 cells/well, or at 14 × 10^3 SKOV-3 cells/well, or at 10 × 10^3 A549 cells/well in a volume of 200 µL/well.
The cell cultures in cultivation plates were allowed to adhere for 24 hour of incubation. On day 1 after cell seeding, 2 µL solutions of the drugs to be tested in medium with 5% FBS was added to the cultures. In the control cultures, 2 µL of medium with 5% FBS was added as solvent control. The cells were incubated for 2 consecutive days. At the end of the incubation period adherent cells were detached by trypsinization and the number of viable cells was counted using trypan blue exclusion test and a hemocytometer. All data were derived from an average of three determinations each in six replicates. The results were expressed as mean cell number ± SE and the differences between control and test series evaluated by means of Student's t-test. The drug cytotoxicity was evaluated based on the extent of cell growth inhibition. The cell growth inhibition of the tested drugs was calculated as follows: Cell growth inhibition,% = (Control-TestSeries)/(Control) × 100 [formula]
In the case of comparative evaluation of cytotoxicity of the inventive compounds themselves and the formulation related to consecutive dilutions of their initial solutions before adding to the cultures, 2 µL solutions of the drugs to be tested in medium with 5% FBS, in normal saline and in saline with 2,3 mM CaCl2 were added to the cultures. In control cultures, 2 µL of medium with 5% FBS, normal saline and saline with 2,3 mM CaCl2 were added as solvent controls (negative controls). […] Therefore an average of negative controls was calculated. […] Therefore an average of positive controls was calculated (for each antibiotic).

[2] = rat, in vivo, ip; for mortality: 100 mg/kg
Description: A single dose i.p. toxicity study in rats was carried out. […] The minimal lethal dose is thus above 100 mg/kg body weight for these compounds.

[3] = MDA-MB-231, 48 h, compound alone, final concentration 10^-7 mol/L, working solutions in MEM with 5% FBS, two days, read-out: cell growth inhibition
[4] = MDA-MB-231, 48 h, compound alone, final concentration 10^-8 mol/L, working solutions in MEM with 5% FBS, two days, read-out: cell growth inhibition
[5] = MDA-MB-231, 48 h, compound alone, final concentration 10^-9 mol/L, working solutions in MEM with 5% FBS, two days, read-out: cell growth inhibition
[6] = compound alone, final concentration 10^-7 mol/L, working solutions in MEM with 5% FBS, two days
[7] = compound alone, final concentration 10^-8 mol/L, working solutions in MEM with 5% FBS, two days
[8] = compound alone, final concentration 10^-9 mol/L, working solutions in MEM with 5% FBS, two days
[9] = MDA-MB-231, compound alone 10^-7 mol/L, in A (saline with […] CaCl2), read-out: cell growth inhibition
[10] = MDA-MB-231, compound alone 10^-7 mol/L, in B (normal saline), read-out: cell growth inhibition
[11] = MDA-MB-231, compound alone 10^-7 mol/L, read-out: Cell growth inhibition in A compared to that in B was increased by
[12] = MDA-MB-231, compound alone 10^-8 mol/L, in A (saline with […] CaCl2), read-out: cell growth inhibition
[13] = MDA-MB-231, compound alone 10^-8 mol/L, in B (normal saline), read-out: cell growth inhibition
[14] = MDA-MB-231, compound alone 10^-8 mol/L, read-out: Cell growth inhibition in A compared to that in B was increased by
[15] = MDA-MB-231, compound alone 10^-9 mol/L, in A (saline with […] CaCl2), read-out: cell growth inhibition
[16] = MDA-MB-231, compound alone 10^-9 mol/L, in B (normal saline), read-out: cell growth inhibition
[17] = MDA-MB-231, compound alone 10^-9 mol/L, read-out: Cell growth inhibition in A compared to that in B was increased by
[18] = compound alone 10^-7 mol/L, in B (normal saline)
[19] = compound alone 10^-8 mol/L, in B (normal saline)
[20] = compound alone 10^-9 mol/L, in B (normal saline)

Row | Structure (SMILES) | inhibition at 0.1 µM [1, 3] [%] | inhibition at 0.01 µM [1, 4] [%] | inhibition at 0.001 µM [1, 5] [%] | number of viable cells [1, 6] | number of viable cells [1, 7] | number of viable cells [1, 8] | minimal lethal dose [2] | mortality [2] | inhibition at 0.1 µM [1, 10] [%] | inhibition at 0.1 µM [1, 11] [%] | inhibition at 0.01 µM [1, 12] [%] | inhibition at 0.01 µM [1, 13] [%] | inhibition at 0.01 µM [1, 14] [%] | inhibition at 0.001 µM [1, 15] [%] | inhibition at 0.001 µM [1, 16] [%] | inhibition at 0.001 µM [1, 17] [%] | number of viable cells [1, 18] | number of viable cells [1, 19] | number of viable cells [1, 20] | cell growth inhibition in (A) compared to compound in B [1] [%] | further results
1 | COC(=O)[C@H](CS(=O)(=O)O)NC(=O)/C=C(C)/C=C/C=C(C)/C=C/C1=C(C)CCCC1(C)C [compound I-1a, N-(all-trans-retinoyl)-L-cysteic acid methyl ester] | 47.9 | 45.6 | 40 | 29.8 ± 2.44 × 10^3 | 31.1 ± 1.90 × 10^3 | 34.3 ± 2.27 × 10^3 | above 100 mg/kg body weight | did not produce mortality | – | – | – | – | – | – | – | – | – | – | – | – | –
2 | CC1=C(/C=C/C(C)=C/C=C/C(C)=C/C(=O)N[C@@H](CS(=O)(=O)O)C(N)=O)C(C)(C)CCC1 [compound I-1f, N-(all-trans-retinoyl)-L-cysteic acid amide] | 52.5 | 48.6 | 44.8 | 25.3 ± 1.11 × 10^3 | 27.4 ± 1.42 × 10^3 | 29.4 ± 2.15 × 10^3 | above 100 mg/kg body weight | did not produce mortality | 44.9 | 15.2 | 46.3 | 36.1 | 16.1 | 38.6 | 25.8 | 17.1 | 31.6 ± 0.89 × 10^3 | 36.7 ± 0.75 × 10^3 | 42.6 ± 0.80 × 10^3 | ~15 | inhibition at 0.1 µM [1, 9]: 53.3%; cell growth inhibition reached on increase of the concentration, in (B) [1]: ~45%
3 | CC1=C(/C=C/C(C)=C/C=C/C(C)=C/C(=O)N[C@@H](CS(=O)(=O)O)C(=O)N(C)C)C(C)(C)CCC1 [compound I-1h, N-(all-trans-retinoyl)-L-cysteic acid dimethylamide] | 46.4 | 39.6 | 32 | 30.3 ± 1.55 × 10^3 | 34.1 ± 1.89 × 10^3 | 38.4 ± 2.11 × 10^3 | above 100 mg/kg body weight | did not produce mortality | 26 | 21.3 | 34.2 | 17.4 | 20.4 | 26.7 | 7 | 21.1 | 41.3 ± 0.99 × 10^3 | 46.1 ± 2.65 × 10^3 | 51.9 ± 3.46 × 10^3 | ~21 | inhibition at 0.1 µM [1, 9]: 41.8%
4 | COC(=O)[C@H](CCS(=O)(=O)O)NC(=O)/C=C(C)/C=C/C=C(C)/C=C/C1=C(C)CCCC1(C)C [compound I-3a, N-(all-trans-retinoyl)-L-homocysteic acid methyl ester] | 49 | 38.2 | 29.2 | 28.8 ± 1.15 × 10^3 | 34.9 ± 1.64 × 10^3 | – | above 100 mg/kg body weight | did not produce mortality | – | – | – | – | – | – | – | – | – | – | – | – | –
5 | CC1=C(/C=C/C(C)=C/C=C/C(C)=C/C(=O)N[C@@H](CCS(=O)(=O)O)C(N)=O)C(C)(C)CCC1 [compound I-3f, N-(all-trans-retinoyl)-L-homocysteic acid amide] | 55.2 | 48.7 | 41.4 | 25.3 ± 0.76 × 10^3 | 29.0 ± 1.32 × 10^3 | 33.1 ± 1.90 × 10^3 | above 100 mg/kg body weight | did not produce mortality | 40.8 | 21.6 | 46.8 | 32.1 | 21.5 | 39 | 21.8 | 21.9 | 32.8 ± 0.99 × 10^3 | 37.6 ± 1.52 × 10^3 | 43.3 ± 2.88 × 10^3 | ~22 | inhibition at 0.1 µM [1, 9]: 53.6%; cell growth inhibition reached on increase of the concentration, in (B) [1]: ~41%
6 | CC1=C(/C=C/C(C)=C/C=C/C(C)=C\C(=O)N[C@@H](CS(=O)(=O)O)C(N)=O)C(C)(C)CCC1 [compound II-1f, N-(13-cis-retinoyl)-L-cysteic acid amide] | 53.2 | 49.8 | 45.1 | 26.6 ± 1.83 × 10^3 | 28.5 ± 2.13 × 10^3 | 31.2 ± 2.42 × 10^3 | above 100 mg/kg body weight | did not produce mortality | 45.8 | 15.4 | 47.4 | 37.3 | 16.1 | 40.1 | 27.2 | 17.7 | 31.1 ± 0.96 × 10^3 | 36.0 ± 1.28 × 10^3 | 41.8 ± 1.46 × 10^3 | ~15 | cell growth inhibition reached on increase of the concentration, in (B) [1]: ~46%
7 | CCOC(=O)[C@H](CCS(=O)(=O)O)NC(=O)\C=C(C)/C=C/C=C(C)/C=C/C1=C(C)CCCC1(C)C [compound II-3b, N-(13-cis-retinoyl)-L-homocysteic acid ethyl ester] | 62.1 | 55.4 | 47.8 | 21.4 ± 0.88 × 10^3 | 25.2 ± 1.27 × 10^3 | 29.5 ± 1.21 × 10^3 | above 100 mg/kg body weight | did not produce mortality | 44.4 | 28.9 | 53.6 | 35.7 | 27.8 | 46 | 25.3 | 27.8 | 30.8 ± 1.60 × 10^3 | 35.6 ± 1.97 × 10^3 | 41.4 ± 2.15 × 10^3 | ~29 | inhibition at 0.1 µM [1, 9]: 60.5%; cell growth inhibition reached on increase of the concentration, in (B) [1]: ~44%
